# Reference: patent US10894946B2, “Multiloop engineered heart muscle tissue” (Tissue Systems Holding GmbH, priority 2005, dated 2021)
# “Also recorded” adds a separate entry of the source.
# System: engineered heart tissue (EHT) rings from heart cells of neonatal rats
# Assay: isometric contraction experiments of single EHT rings (twitch tension, calcium response curves)
# Assay type: cell-based, rat
# Conditions: culture medium supplemented with 10 pg/ml insulin vs untreated controls; n=4 vs n=3
# Procedure: In a further step, the force-generating engineered heart tissue rings, which are in contact with each other, are cultured under conditions which allow the fusion of the contacted ring structures to form an artificial heart muscle construct. For this purpose, the engineered heart tissue rings are normally incubated in culture dishes, wherein the rings are submersed in appropriate culture medium. If a holding device is used for culturing, the device should be designed to allow the tissue rings to stay in continuous contact with the culture medium. The choice of the culture medium is not critical. Conventional media for culturing cardiac myocytes may be used. Such media are known in the art and described, for example, in Zimmermann, W. H. et al., Circulation 106, I 151-7 (2002) and published International Application WO 01/55297. […]
# FIGS. 1A-1F show the influences of oxygen, load, and insulin in isometric contraction experiments in single engineered heart tissue (EHT) rings (TT: twitch tension). […] To increase size, 5 EHT rings (FIG. 1D) were stacked in a custom made device that facilitate EHT fusion and contractions under auxotonic load (FIG. 1E), resulting in synchronously contracting multiring EHT constructs (FIG. 1F) ready for in vivo engraftment. *P<0.05 vs. 21% 02, static load, and culture in the absence of insulin (Ctr.), respectively by repeated ANOVA. […]
substance,measurement,value
insulin,contracting characteristics (twitch tension) of EHT rings,benefited; also recorded: enhanced contracting characteristics
